Molecular target: EGFR (UniProt P00533)
Sequence (P00533 whole entry, looked up): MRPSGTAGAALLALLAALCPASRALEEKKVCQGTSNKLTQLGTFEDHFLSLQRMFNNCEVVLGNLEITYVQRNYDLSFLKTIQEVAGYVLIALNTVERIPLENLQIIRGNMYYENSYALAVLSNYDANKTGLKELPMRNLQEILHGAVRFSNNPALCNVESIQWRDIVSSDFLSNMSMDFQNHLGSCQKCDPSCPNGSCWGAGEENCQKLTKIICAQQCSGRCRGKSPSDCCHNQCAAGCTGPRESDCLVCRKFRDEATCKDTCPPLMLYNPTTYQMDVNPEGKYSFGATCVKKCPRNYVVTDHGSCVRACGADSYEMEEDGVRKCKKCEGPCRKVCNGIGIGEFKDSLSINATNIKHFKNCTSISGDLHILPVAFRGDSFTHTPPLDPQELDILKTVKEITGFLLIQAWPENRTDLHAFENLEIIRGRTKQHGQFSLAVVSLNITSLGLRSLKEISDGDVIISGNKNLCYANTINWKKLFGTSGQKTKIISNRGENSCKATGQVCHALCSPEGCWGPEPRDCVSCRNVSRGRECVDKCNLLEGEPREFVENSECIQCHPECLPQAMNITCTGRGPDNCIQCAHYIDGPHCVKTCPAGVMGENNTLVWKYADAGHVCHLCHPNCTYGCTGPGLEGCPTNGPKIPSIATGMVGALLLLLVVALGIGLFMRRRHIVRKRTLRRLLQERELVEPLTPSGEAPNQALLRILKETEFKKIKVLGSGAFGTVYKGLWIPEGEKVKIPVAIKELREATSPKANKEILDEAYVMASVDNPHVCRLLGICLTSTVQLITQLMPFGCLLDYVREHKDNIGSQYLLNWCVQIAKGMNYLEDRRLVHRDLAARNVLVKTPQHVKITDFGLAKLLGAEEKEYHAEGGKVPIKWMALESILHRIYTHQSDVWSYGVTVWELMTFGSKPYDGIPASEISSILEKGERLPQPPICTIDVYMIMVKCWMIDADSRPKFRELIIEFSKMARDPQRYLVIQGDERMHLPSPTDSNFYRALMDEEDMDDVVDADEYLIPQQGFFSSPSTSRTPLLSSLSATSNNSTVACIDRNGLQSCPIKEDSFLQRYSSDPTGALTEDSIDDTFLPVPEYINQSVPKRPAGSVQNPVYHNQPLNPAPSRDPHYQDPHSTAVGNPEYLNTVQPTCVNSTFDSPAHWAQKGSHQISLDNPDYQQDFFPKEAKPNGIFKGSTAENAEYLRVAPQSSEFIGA

Row | SMILES | IC50
1 | COc1cc2c(Nc3ccc(Cl)c(Cl)c3)ncnc2cc1OCC1CN(S(=O)(=O)c2ccc(C)cc2)CCO1 (stereo unspecified) | < 50 nM
2 | CCN1CCC[C@H]1c1nc(COc2cc3ncnc(Nc4ccc(Cl)c(Cl)c4)c3cc2OC)cs1 | < 50 nM
3 | COc1cc2c(Nc3ccc(Cl)c(Cl)c3)ncnc2cc1OCc1nc(CN2CCN(C)CC2)cs1 | < 50 nM
4 | COc1cc2c(Nc3ccc(Br)c(Cl)c3)ncnc2cc1O[C@H]1CO[C@@H]2[C@H]1OC[C@@H]2S(C)(=O)=O | < 50 nM
5 | COc1cc2c(Nc3ccc(Br)cc3F)ncnc2cc1O[C@@H]1CO[C@@H]2[C@H]1OC[C@H]2F | < 50 nM
6 | COc1cc2c(Nc3ccc(Br)c(Cl)c3Cl)ncnc2cc1OCC1CN(C)C(C)(C)CO1 (stereo unspecified) | < 50 nM
7 | COc1cc2c(Nc3ccc(Br)cc3Br)ncnc2cc1OCC1CN(C)CCO1 (stereo unspecified) | < 50 nM
8 | COc1cc2c(Nc3ccc(N4CCN(C)CC4)c(F)c3)ncnc2cc1O[C@H]1CO[C@@H]2[C@H]1OC[C@@H]2F | < 50 nM
9 | COc1cc2c(Nc3ccc(Cl)c(Cl)c3)ncnc2cc1OCC1CN(CCF)CCO1 (stereo unspecified) | < 50 nM
10 | COc1cc2c(Nc3ccc(Cl)c(Cl)c3F)ncnc2cc1OC[C@@H]1CN2CCOC[C@H]2CO1 | < 50 nM
11 | COc1cc2c(Nc3ccc(Br)c(Cl)c3F)ncnc2cc1O[C@H]1CO[C@H]2[C@@H]1OC[C@@H]2OC | < 50 nM
12 | COc1cc2c(Nc3ccc(Br)c(Cl)c3)ncnc2cc1O[C@@H]1CCOC1 | < 50 nM
13 | CCC(=O)N1CCOC(COc2cc3ncnc(Nc4ccc(Cl)c(Cl)c4)c3cc2OC)C1 (stereo unspecified) | < 50 nM
14 | COc1cc2c(Nc3cc(Cl)c(Br)cc3F)ncnc2cc1O[C@H]1CO[C@H]2[C@@H]1OC[C@@H]2OC | < 50 nM
15 | COc1cc2c(Nc3ccc(F)c(Cl)c3F)ncnc2cc1OCC1CN(C)CCO1 (stereo unspecified) | < 50 nM
16 | COc1cc2c(Nc3ccc(Cl)c(Cl)c3)ncnc2cc1OCc1cc(Br)cc(Br)c1 | 50 to 1000 nM
17 | COc1cc2c(Nc3ccc(Br)c(Cl)c3)ncnc2cc1O[C@H]1CO[C@@H]2[C@H]1OC[C@@H]2NS(C)(=O)=O | < 50 nM
18 | COc1cc2c(Nc3ccc(Cl)c(Cl)c3)ncnc2cc1OCC1CCCO1 (stereo unspecified) | < 50 nM
19 | COc1cc2c(Nc3cccc(Cl)c3C)ncnc2cc1O[C@H]1CO[C@H]2[C@@H]1OC[C@@H]2OC | < 50 nM
20 | COc1cc2c(Nc3cccc(Br)c3)ncnc2cc1O[C@@H]1CO[C@@H]2[C@H]1OC[C@H]2F | < 50 nM
21 | COc1cc2c(Nc3ccc(Cl)c(Cl)c3)ncnc2cc1OCC1CN(C)CC(C)(C)O1 (stereo unspecified) | < 50 nM
22 | COc1cc2c(Nc3ccc(Cl)c(Cl)c3)ncnc2cc1OCc1nc([C@@H]2CCCN2C)no1 | < 50 nM
23 | COc1cc2c(Nc3cc(F)c(Br)c(Cl)c3)ncnc2cc1O[C@@H]1CO[C@@H]2[C@H]1OC[C@H]2F | < 50 nM

Row | SMILES | IC50
24 | CCN1CCC(c2nc(COc3cc4ncnc(Nc5ccc(Cl)c(Cl)c5)c4cc3OC)cs2)CC1 | < 50 nM
25 | COc1cc2c(Nc3c(F)cc(F)cc3Br)ncnc2cc1O[C@@H]1CO[C@@H]2[C@H]1OC[C@H]2F | < 50 nM
26 | COc1cc2c(Nc3ccc(Cl)c(Cl)c3)ncnc2cc1OCC1CN(C(=O)c2ccc(Cl)nc2)CCO1 (stereo unspecified) | < 50 nM
27 | COc1cc2c(Nc3ccc(Br)c(Cl)c3)ncnc2cc1OC1CCN(C)C1 (stereo unspecified) | < 50 nM
28 | COCCOc1cc2c(Nc3ccc(Cl)c(Cl)c3)ncnc2cc1OCC1CN(C)CCO1 (stereo unspecified) | < 50 nM
29 | COc1cc2c(Nc3cc(Cl)c(Br)cc3F)ncnc2cc1OCC1CN(C)CCO1 (stereo unspecified) | < 50 nM
30 | COc1cc2c(Nc3ccc(Br)c(Cl)c3F)ncnc2cc1OC[C@@H]1CN(C)CC(=O)N1C | < 50 nM
31 | COc1cc2c(Nc3ccc(Cl)c(Cl)c3)ncnc2cc1OCC1CN(CCO)CCO1 (stereo unspecified) | < 50 nM
32 | COC(=O)CCCCN1CCOC(COc2cc3ncnc(Nc4ccc(Cl)c(Cl)c4)c3cc2OC)C1 (stereo unspecified) | < 50 nM
33 | COc1cc2c(Nc3cc(C(F)(F)F)ccc3Cl)ncnc2cc1O[C@@H]1CO[C@@H]2[C@H]1OC[C@H]2F | < 50 nM
34 | COc1cc2c(Nc3ccc(C(F)(F)F)cc3Br)ncnc2cc1O[C@@H]1CO[C@@H]2[C@H]1OC[C@H]2F | < 50 nM
35 | COc1cc2c(Nc3cccc(Br)c3C)ncnc2cc1OCC1CN(C)CCO1 (stereo unspecified) | < 50 nM
36 | COc1cc2c(Nc3ccc(Cl)c(Cl)c3)ncnc2cc1OCC1CN(CCCCCC#N)CCO1 (stereo unspecified) | < 50 nM
37 | COc1cc2c(Nc3ccc(Cl)c(Cl)c3F)ncnc2cc1OC[C@@H]1CN2CCC[C@H]2CO1 | < 50 nM
38 | COc1cc2c(Nc3ccc(Cl)c(Cl)c3)ncnc2cc1O[C@@H]1CO[C@@H]2[C@H]1OC[C@H]2F | < 50 nM
39 | COc1cc2c(Nc3ccc(Cl)c(Cl)c3)ncnc2cc1OCC1CN(Cc2ccc(F)cc2)CCO1 (stereo unspecified) | < 50 nM
40 | COc1cc2c(Nc3ccc(Br)cc3F)ncnc2cc1OCC1CCN(C(N)=NC#N)CC1 | < 50 nM
41 | COc1cc2c(Nc3ccc(Cl)c(C(F)(F)F)c3)ncnc2cc1O[C@@H]1CO[C@@H]2[C@H]1OC[C@H]2F | < 50 nM
42 | COc1cc2c(Nc3ccc(Cl)c(Cl)c3Cl)ncnc2cc1O[C@H]1CO[C@H]2[C@@H]1OC[C@@H]2OC | < 50 nM
43 | COc1cc2c(Nc3ccc(Br)c(Cl)c3F)ncnc2cc1OCC1CN(C)CCO1 (stereo unspecified) | < 50 nM
44 | CCCCCN1CCOC(COc2cc3ncnc(Nc4ccc(Cl)c(Cl)c4)c3cc2OC)C1 (stereo unspecified) | < 50 nM
45 | CCN1CCCCC1c1nc(COc2cc3ncnc(Nc4ccc(Cl)c(Cl)c4)c3cc2OC)cs1 (stereo unspecified) | < 50 nM
46 | CCCCC(CC)C(=O)N1CCOC(COc2cc3ncnc(Nc4ccc(Cl)c(Cl)c4)c3cc2OC)C1 (stereo unspecified) | < 50 nM

Row | SMILES | IC50
47 | CCN1CCC(c2nc(COc3cc4ncnc(Nc5ccc(Cl)c(Cl)c5)c4cc3OC)no2)CC1 | < 50 nM
48 | COc1cccc(CC(=O)N2CCOC(COc3cc4ncnc(Nc5ccc(Cl)c(Cl)c5)c4cc3OC)C2)c1 (stereo unspecified) | < 50 nM
49 | COc1cc2c(Nc3ccc(Br)c(Cl)c3)ncnc2cc1O[C@H]1CO[C@H]2[C@@H]1OC[C@@]21COC(C)(C)O1 | < 50 nM
50 | COc1cc2c(Nc3ccc(Cl)c(Cl)c3)ncnc2cc1OC1CC2CCC(C1)N2C (stereo unspecified) | < 50 nM
51 | COc1cc2c(Nc3ccc(Cl)c(Cl)c3)ncnc2cc1OCC1CN(CC2CCCCC2)CCCO1 (stereo unspecified) | < 50 nM
52 | COc1cc2c(Nc3ccc(Cl)c(Cl)c3)ncnc2cc1OCc1csc(C2CCCCN2)n1 (stereo unspecified) | < 50 nM
53 | COc1cc2c(Nc3ccc(Cl)c(Cl)c3)ncnc2cc1OC[C@H]1CN2CCC[C@@H]2CO1 | < 50 nM
54 | COc1cc2c(Nc3ccc(Cl)c(Cl)c3)ncnc2cc1OCC1CN(CC(N)=O)CCO1 (stereo unspecified) | < 50 nM
55 | COc1cc2c(Nc3ccc(Cl)c(Cl)c3)ncnc2cc1OCC1CN(CCCc2ccccc2)CCO1 (stereo unspecified) | < 50 nM
56 | COc1cc2c(Nc3ccc(Cl)c(Cl)c3F)ncnc2cc1O[C@@H]1CO[C@@H]2[C@H]1OC[C@H]2F | < 50 nM
57 | COc1cc2c(Nc3ccc(F)c(Cl)c3F)ncnc2cc1O[C@@H]1CO[C@@H]2[C@H]1OC[C@H]2F | < 50 nM
58 | COc1cc2c(Nc3ccc(Cl)c(Cl)c3)ncnc2cc1OC[C@H]1CN2CCC[C@H]2CO1 | < 50 nM
59 | COc1cc2c(Nc3ccc(Cl)c(Cl)c3F)ncnc2cc1OCC1CN(C)CCO1 (stereo unspecified) | < 50 nM
60 | COc1cc2c(Nc3ccc(F)c(Cl)c3F)ncnc2cc1O[C@H]1CO[C@H]2[C@@H]1OC[C@@H]2OC | < 50 nM
61 | COc1cc2c(Nc3ccc(Br)cc3Cl)ncnc2cc1OCC1CN(C)CCO1 (stereo unspecified) | < 50 nM
62 | CCN1CCOC(COc2cc3ncnc(Nc4ccc(Cl)c(Cl)c4)c3cc2OC)C1 (stereo unspecified) | < 50 nM
63 | COc1cc2c(Nc3ccc(F)c(F)c3)ncnc2cc1O[C@@H]1CO[C@@H]2[C@H]1OC[C@H]2F | < 50 nM
64 | COc1cc2c(Nc3ccc(Cl)c(Cl)c3)ncnc2cc1OCCN1CCCCC1 | < 50 nM
65 | COCCN1CCOC(COc2cc3ncnc(Nc4ccc(Cl)c(Cl)c4)c3cc2OC)C1 (stereo unspecified) | < 50 nM
66 | COc1cc2c(Nc3ccc(Cl)c(Cl)c3)ncnc2cc1OCc1noc(C2CCCCN2C(=O)OC(C)(C)C)n1 (stereo unspecified) | < 50 nM
67 | COc1cc2c(Nc3ccc(Br)c(Cl)c3)ncnc2cc1O[C@H]1CO[C@@H]2[C@H]1OC[C@@H]2N1CCN(C)CC1 | < 50 nM
68 | COc1cc2c(Nc3ccc(Cl)c(Cl)c3)ncnc2cc1OCC(=O)N1CCOCC1 | < 50 nM
69 | COc1cc2c(Nc3ccc(Cl)c(Cl)c3)ncnc2cc1OCC1CN(CCC2CCCCC2)CCO1 (stereo unspecified) | < 50 nM

Row | SMILES | IC50
70 | COc1cc2c(Nc3ccc(F)c(Cl)c3F)ncnc2cc1OC[C@@H]1CN2CCOC[C@H]2CO1 | < 50 nM
71 | COc1cc2c(Nc3ccc(Cl)c(Cl)c3)ncnc2cc1OCC1CN(S(=O)(=O)c2ccc(F)cc2)CCO1 (stereo unspecified) | < 50 nM
72 | COc1cc2c(Nc3ccc(Br)c(Cl)c3Cl)ncnc2cc1OCC1CN(C)CCO1 (stereo unspecified) | < 50 nM
73 | CCC(CC)CN1CCCOC(COc2cc3ncnc(Nc4ccc(Cl)c(Cl)c4)c3cc2OC)C1 (stereo unspecified) | < 50 nM
74 | COc1cc2c(Nc3ccc(Cl)c(Cl)c3)ncnc2cc1OCc1csc(CO)n1 | < 50 nM
75 | COc1cc2c(Nc3ccc(Cl)c(Cl)c3)ncnc2cc1OCC1CN(S(=O)(=O)CCCCl)CCO1 (stereo unspecified) | < 50 nM
76 | COc1cc2c(Nc3ccc(Cl)c(Cl)c3)ncnc2cc1OC[C@@H]1CN2CCC[C@H]2CO1 | < 50 nM
77 | COc1cc2c(Nc3ccc(Br)c(Cl)c3)ncnc2cc1O[C@H]1CO[C@@H]2CCO[C@H]12 | < 50 nM
78 | COc1cc2c(Nc3ccc(Cl)c(Cl)c3)ncnc2cc1OCC1CN(CC2CC2)CCCO1 (stereo unspecified) | < 50 nM
79 | COc1cc2c(Nc3ccccc3Br)ncnc2cc1O[C@@H]1CO[C@@H]2[C@H]1OC[C@H]2F | < 50 nM
80 | COc1cc2c(Nc3cc(F)c(Br)cc3F)ncnc2cc1OCC1CN(C)CCO1 (stereo unspecified) | < 50 nM
81 | COc1cc2c(Nc3ccc(Br)c(Cl)c3)ncnc2cc1O[C@H]1CO[C@@H]2[C@H]1OC[C@@H]2N1CCCC1 | < 50 nM
82 | COc1cc2c(Nc3ccc(Cl)c(Cl)c3)ncnc2cc1O[C@H]1CO[C@H]2[C@@H]1OC[C@@H]2OC | < 50 nM
83 | CCN1CCc2nc(COc3cc4ncnc(Nc5ccc(Cl)c(Cl)c5)c4cc3OC)sc2C1 | < 50 nM
84 | COc1cc2c(Nc3ccc(Br)cc3)ncnc2cc1O[C@@H]1CO[C@@H]2[C@H]1OC[C@H]2F | < 50 nM
85 | COc1cc2c(Nc3ccc(Br)c(Cl)c3)ncnc2cc1O[C@H]1CO[C@@H]2[C@H]1OC[C@@H]2O | < 50 nM
86 | COc1cc2c(Nc3ccc(Cl)c(Cl)c3)ncnc2cc1OCC1CN2CCOCC2CO1 (stereo unspecified) | < 50 nM
87 | COc1cc2c(Nc3ccc(Cl)c(Cl)c3)ncnc2cc1OCc1nc(CN2CCCN(C)CC2)cs1 | < 50 nM
88 | COc1cc2c(Nc3ccc(Cl)c(Cl)c3)ncnc2cc1OCCC1CN(C)CC(C)(C)O1 (stereo unspecified) | < 50 nM
89 | COc1cc2c(Nc3ccc(Br)c(Cl)c3Cl)ncnc2cc1O[C@@H]1CO[C@@H]2[C@H]1OC[C@H]2F | < 50 nM
90 | COc1cc2c(Nc3ccc(Cl)c(Cl)c3)ncnc2cc1OCC1CN(C2CCC2)CCO1 (stereo unspecified) | < 50 nM
91 | COc1cc2c(Nc3ccc(Cl)c(Cl)c3)ncnc2cc1OCc1nc(-c2ccc(O)c(C(N)=O)c2)cs1 | < 50 nM

Source: the Kinase Knowledgebase extract (Sharma et al. 2016)
